Experimental data published in US20250213524A1, “COMPOSITIONS FOR USE” (Amazentis SA, priority 2023, published 2025).

System: human sperm
Test: Ex vivo incubation of human semen samples with urolithin A, motility by computer-assisted semen analysis (CEROS II)
Type: cell-based
Conditions: for Motile sperm concentration (million/mL), UA vs. DMSO: 4 hours incubation at 36° C.; for Motile sperm concentration (million/mL), UA vs. DMSO / BCF Beat Cross-Frequency, UA vs. DMSO / Rapid progressive motile sperm concentration (million/mL), UA vs. DMSO: increase vs. DMSO; for Rapid progressive motile sperm concentration (million/mL), UA vs. DMSO: rapid progressive motility >25 μm/s; for motile sperm concentration: increase
Experimental: Sperm samples from five healthy men donors were processed within 1 hour of collection. 3 samples were either diluted 1:1 in culture media containing DMSO or urolithin A (UA) (0.05, 0.1, 0.5, and 2.0 μM in DMSO). For these samples, all treatments contained the same amount of DMSO. Two samples were pre-diluted in culture media, which was then diluted in the treatment solutions, immediately. This was to decrease the eventual effect of seminal plasma. Samples were incubated for 4 hours with the indicated UA doses. For the study, semen samples were obtained by masturbation after 2-7 days of ejaculatory abstinence, according to World Health Organization Guidelines (https://www.who.int/publications/i/item/9789240030787). Samples were collected into sterile wide-mouth polypropylene containers tested for sperm toxicity (BIRR semen collection container, IVF store code 113102). After collection, samples were kept in an air incubator for 1 hour, until semen liquefaction. For experiments, a 50 mM stock Urolithin A (UA) solution was prepared in Dimethyl Sulfoxide (DMSO, Fisher Scientific, BP231-100). At the day of the experiments, a working solution was prepared by diluting the 50 mM stock solution 1:1000 in Sperm Washing Medium (FujiFilm Modified HTF Medium with Human Serum Albumin, 5.0 mg/mL, catalog ID: 9983). A blank working solution containing only DMSO was also prepared by diluting DMSO 1:1000 in Sperm Washing Medium. Treatment solutions were then prepared containing 0, 0.1 μM, 0.2 μM, 1.0 μM, and 4.0 μM were prepared as follows: Treatment solutions were then diluted 1:1 with raw semen (samples A, B, and D) or with semen that had been pre-diluted 1:1 in Sperm Washing Medium (samples C and E), so that final achieved treatment concentrations were 0 (blank, DMSO only, 0.05 µM, 0.1 μM, 0.5 μM, and 2.0 µM UA. This was incubated at 36° C. for 4 hours, after which motility was assessed using a CEROS II system for computer-assisted semen analysis (Hamilton Thorne Inc., Beverly, MA, USA). To achieve this, 4-chamber 20 μm Leja slides (IMV International Ref. 025107-025108) were pre-heated at 37° C. 2.5 μL of each sample was pipetted into each chamber, and the Human Motility module of the CEROS II system was used to capture multiple fields (at least 6) in order to determine sperm motility parameters.

[1] = all doses (0.05, 0.1, 0.5, 2.0 μM), 4 hours incubation

SMILES: O=c1oc2cc(O)ccc2c2ccc(O)cc12 [UA, Urolithin A]
- Motile sperm concentration (million/mL), UA vs. DMSO (0.05 uM UA): 2%
- BCF Beat Cross-Frequency, UA vs. DMSO (0.05 uM UA, 4 hours incubation, motile sperm): 5%
- Rapid progressive motile sperm concentration (million/mL), UA vs. DMSO (0.05 uM UA, 4 hours incubation): 2%
- Motile sperm concentration (million/mL), UA vs. DMSO (0.1 uM UA): 16.8%
- BCF Beat Cross-Frequency, UA vs. DMSO (0.1 uM UA, 4 hours incubation, motile sperm): 6%
- Rapid progressive motile sperm concentration (million/mL), UA vs. DMSO (0.1 uM UA, 4 hours incubation): 20%
- Motile sperm concentration (million/mL), UA vs. DMSO (0.5 uM UA): 10.7%
- BCF Beat Cross-Frequency, UA vs. DMSO (0.5 uM UA, 4 hours incubation, motile sperm): 9%
- Rapid progressive motile sperm concentration (million/mL), UA vs. DMSO (0.5 uM UA, 4 hours incubation): 10%
- Motile sperm concentration (million/mL), UA vs. DMSO (2 uM UA): 21.4%
- BCF Beat Cross-Frequency, UA vs. DMSO (2 uM UA, 4 hours incubation, motile sperm): 7%
- Rapid progressive motile sperm concentration (million/mL), UA vs. DMSO (2 uM UA, 4 hours incubation): 20%
- Motile sperm concentration, effect in words [1]: increased at all doses
- Rapid progressive motile sperm concentration, effect in words [1]: increased at all doses
- Beat Cross-Frequency, effect in words (all doses (0.05, 0.1, 0.5, 2.0 μM), motile sperm, 4 hours incubation): an increase by UA at all doses
- sperm motility / sperm health, effect in words (applied ex vivo to human sperm, especially 0.1 uM to 2 uM): increases sperm motility
- motile sperm concentration (highest UA 2 μM dose, 4 hours incubation): 20%
- motile sperm concentration (lower dose of UA 0.05 μM, 4 hours incubation): 2%
